Measured values reported in PMC5161367, “Discovery of Novel Small Molecule Inhibitors of VEGF Expression in Tumor Cells Using a Cell-Based High Throughput Screening Platform” (PLoS ONE, 2016).
Where two headings read alike, the source gives them in different places.

How the values were obtained:
[1] = test system: VEGF; assay: VEGF ELISA, hypoxia-induced VEGF production in HeLa cells; type: cell-based; settings: Homo sapiens; for IC50: HeLa cells under hypoxia, read-out: IC50, inhibition of hypoxia induced VEGF production (VEGF ELISA)
Protocol: Cells were treated with vehicle control (0.5% DMSO) or compounds at the indicated concentration for 48 hours, and specific proteins in conditioned medium were quantified using commercially available ELISA kits (R&D Systems) according to the manufacturer’s recommendations. VEGF was quantified in HeLa cells under hypoxia (1% oxygen); Tumor necrosis factor alpha (TNFα) was quantified in CEM cells stimulated with 1 μg/mL interleukin-1 beta (Sigma); erythropoietin (EPO) was quantified in HepB3 cells under hypoxic conditions (1% oxygen); and granulocyte colony-stimulating factor (G-CSF), basic fibroblast growth factor (FGF-2) and insulin-like growth factor 1 (IGF-1) were quantified without induction in HT1080 cells, HeLa cells and HepG2 cells, respectively.
A sigmoid dose-response with variable slope regression curve was generated for each compound. The maximal and minimal inhibition values were set at 100% and 0%, respectively. IC50 and CC50 values were automatically calculated after curve fitting by the software.
Hits from the HTS were then evaluated for their ability to modulate hypoxia-inducible endogenous VEGF expression. HeLa cells were cultured under hypoxic conditions (1% O2, 5% CO2, balanced with nitrogen) in the presence or absence of compound at a concentration of 7.5 μM in duplicate. VEGF protein levels in the conditioned medium were quantified by ELISA. […] Compounds that reduced endogenous hypoxia-induced VEGF by 50% or more at a single concentration of 7.5 μM were further evaluated.
(§1) The IC50 values for compounds that inhibited VEGF production were determined next. A seven-point dose-response analysis was performed for each of the 137 compounds. In parallel, a dose-response cytotoxicity assay was performed to determine the CC50 (the concentration resulting in 50% cellular growth inhibition or cytotoxicity) under the same conditions as VEGF ELISA to determine whether hypoxia-induced VEGF inhibition was due to cytotoxicity.

[2] = Cytotoxicity, CellTiter-Glo, HeLa cells; type: cell-based; settings: human
Protocol: The cytotoxicity of compounds was determined in peripheral blood mononuclear cells (PBMCs) and primary human foreskin fibroblasts, both purchased frozen from AllCells, Inc, CA. Cells were incubated with test compound at various concentrations in triplicate for a period of 3 days in 96-well plates. The cytotoxicity or inhibition of cell proliferation was determined using a standard CellTiter-Glo® Luminescent Cell Viability Assay (Promega, Madison, WI) that measures total cellular adenosine triphosphate (ATP) concentration as a function of cell viability. In addition, cytotoxicity assays were also performed in HeLa cells in parallel with VEGF ELISA to ensure that the inhibition of VEGF production in HeLa cells was not due to cytotoxicity.
as §1

[3] = test system: membrane bound VEGF (VEGF189 and VEGF206); assay: Western blot of membrane bound VEGF isoforms; type: cell-based, human
Protocol: Cells were treated with test compounds for the indicated times as shown in the Results section. Whole-cell extracts were obtained by lysing cells in M-PER lysis buffer (Pierce, Rockford, IL) containing 150 mM NaCl, 2 mM EDTA and 1x Halt protease inhibitors (Pierce). Samples were resolved on a Tris-glycine Criterion gel (Bio-Rad) and transferred onto a 0.45 μm nitrocellulose membrane. The membranes were then immunoblotted with specific antibodies as shown in the Results section: antibody (C1) specific for VEGF was purchased from Santa Cruz Biotechnologies (used at 1:200 dilution); and antibody specific for human β-actin was purchased from Abcam (Cambridge, MA) (1:10000 dilution). Immunodetection was done using the corresponding secondary antibodies conjugated with infrared dyes or horseradish peroxidase. The expression levels of proteins were quantified with Odyssey (LI-COR) or using enhanced chemiluminescence (Pierce).
The effect of PTC-858 on the levels of the soluble and membrane bound VEGF isoforms was characterized. The levels of the soluble VEGF isoforms (VEGF121 and VEGF165) were assessed from conditioned medium as described above. The effect of PTC-858 on the production of the high molecular weight, membrane bound isoforms (VEGF189 and VEGF206), was determined by Western blot analysis using a VEGF specific antibody. β-actin levels were used as an internal loading control. […]

[4] = Microsome metabolism - murine; type: in vitro ADME, mouse
Protocol: Pharmacological characterization of PTC-510. Pharmacological assays were performed to characterize PTC-510, including metabolic stability in human, primate mouse and rat liver microsomes; absorption in Caco-2 cells; in vitro effect on hERG ion channel; pharmacokinetics; and acute toxicity in the rat.

[5] = target: Cyp3A4 (Homo sapiens, UniProt P08684); assay: p450 inhibition Cyp3A4; type: in vitro ADME
[6] = target: Cyp2C19 (Homo sapiens, UniProt P33261); assay: p450 inhibition Cyp2C19; type: in vitro ADME
[7] = test system: hFGF-2; assay: HT1080 xenograft pharmacodynamic model, intratumor hFGF-2; type: in vivo, mouse; settings: twice per day for 7 days
Protocol: (§2) Log phase growing tumor cells (5–10 x 10^6 cells/mouse, depending on the cell line) were implanted subcutaneously in athymic nude mice. When the average tumor size reached the indicated size, mice were randomly divided into groups and administered vehicle (5% DMSO/ 95% PEG-300) or test compounds by oral gavage. Tumor volumes were measured twice per week using digital calipers and body weights once per week. Tumor volume was determined according to the formula: L x (W)^2/2, where L is the longest dimension and W is the shortest dimension.
(§3) At the end of experiments, the tumors were excised from mice and homogenized on ice using a Powergen homogenizer fitted with Omni-Tip disposable/reusable probes (both from Fisher Scientific) in Tris-HCl buffer containing a cocktail of proteinase inhibitors. Intra-tumor human VEGF levels, as well as levels of other growth factors or proteins, were subsequently measured using commercially available ELISA kits (R&D Systems). Protein concentrations of the homogenates were determined using the Bradford protein assay (Bio-Rad) and intratumor growth factor levels were normalized to the total protein concentration.
(§4) Among the VEGF UTR-selective compounds identified, PTC-858 is a potent hit with adequate pharmaceutical properties (data not shown). […]

[8] = test system: hSurvivin; assay: HT1080 xenograft pharmacodynamic model, intratumor hSurvivin; type: in vivo, human; settings: 200 mg/kg, twice per day for 7 days, oral, mean +/- SD, n = 10
Protocol: as §2, §3, §4

Sequence of Cyp3A4 (P08684 whole entry): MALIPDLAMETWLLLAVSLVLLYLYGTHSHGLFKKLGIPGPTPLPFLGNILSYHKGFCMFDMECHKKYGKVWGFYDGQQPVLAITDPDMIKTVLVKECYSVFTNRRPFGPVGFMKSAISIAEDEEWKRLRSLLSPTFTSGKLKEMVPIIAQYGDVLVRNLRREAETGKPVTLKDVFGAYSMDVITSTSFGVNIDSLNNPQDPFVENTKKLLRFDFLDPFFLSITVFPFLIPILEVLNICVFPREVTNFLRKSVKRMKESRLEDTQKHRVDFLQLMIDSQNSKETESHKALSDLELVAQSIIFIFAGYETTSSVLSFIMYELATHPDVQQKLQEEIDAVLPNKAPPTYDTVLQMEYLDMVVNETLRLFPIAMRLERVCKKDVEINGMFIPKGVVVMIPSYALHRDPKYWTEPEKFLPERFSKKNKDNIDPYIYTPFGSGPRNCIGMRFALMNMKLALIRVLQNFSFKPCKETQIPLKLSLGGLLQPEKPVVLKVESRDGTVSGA
Sequence of Cyp2C19 (P33261 whole entry): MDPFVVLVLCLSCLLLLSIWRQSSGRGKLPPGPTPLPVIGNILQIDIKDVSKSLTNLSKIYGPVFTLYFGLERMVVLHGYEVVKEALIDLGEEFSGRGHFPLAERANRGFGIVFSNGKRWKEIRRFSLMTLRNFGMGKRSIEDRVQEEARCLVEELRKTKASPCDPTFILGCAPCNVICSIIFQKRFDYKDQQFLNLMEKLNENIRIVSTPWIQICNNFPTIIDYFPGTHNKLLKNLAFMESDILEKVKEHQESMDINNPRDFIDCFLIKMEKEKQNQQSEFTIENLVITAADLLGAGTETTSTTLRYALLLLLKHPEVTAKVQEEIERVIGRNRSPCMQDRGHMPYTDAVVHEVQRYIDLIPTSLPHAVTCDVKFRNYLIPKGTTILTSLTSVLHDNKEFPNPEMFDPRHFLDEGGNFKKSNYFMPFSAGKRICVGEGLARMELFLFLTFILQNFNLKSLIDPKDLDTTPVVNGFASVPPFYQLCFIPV

Compound	IC50 [1]	EC50 ([1]; HeLa cells, read-out: HeLa VEGF ELISA/SAR EC50)	EC90 ([1]; HeLa cells, read-out: HeLa VEGF ELISA/SAR EC90)	CC50 at 48 hr ([2]; 48 hr)	effect on production of membrane bound VEGF189/206 (Western blot) ([3]; Fig 4c)	Microsome metabolism - murine, % loss @ 1 h [4]	IC50 [5]	IC50 [6]	EC50 ([1]; HeLa cells under hypoxia (1% oxygen), 48 hours, read-out: ELISA EC50, VEGF)	CC50 at 72 hours ([2]; 72 hours, CellTiter-Glo)	selectivity ratio ([2]; CC50 vs VEGF ELISA IC50, read-out: selective index (CC50/IC50))	effect on level of membrane bound VEGF (Western blot) ([3]; HeLa cells (text b57), β-actin loading control)	changes in FGF-2 in vivo ([7]; 200 mg/kg orally)	intratumor hFGF-2 ([7]; 200 mg/kg, oral, mean +/- SD, n = 10)	intratumor hSurvivin [8]
COc1ccc(C2c3[nH]c4ccc(Br)cc4c3CC3C(=O)N(C4CCCCC4)C(=S)N32)cc1.O=C(O)C(F)(F)F (stereo not shown) [PTC-510, 9-bromo-2-cyclohexyl-5-(4-methoxyphenyl)-3-thioxo-2,3,5,6,11,11a-hexahydro-1H-imidazo[1’,5’:1,6]pyrido[3,4-b]indol-1-one trifluoroacetate]	~0.006 µM	0.006 µM	0.05 µM	0.2 µM	inhibits the production of the membrane bound VEGF189/206	0%	3.7 µM	> 5 µM	–	–	–	–	–	–	–
Brc1ccc2[nH]c3c(c2c1)CCCC3n1cccc1 (stereo not shown) [PTC-858, 6-bromo-1-(1H-pyrrol-1-yl)-2,3,4,9-tetrahydro-1H-carbazole]	0.0075 µM	–	–	–	–	–	–	–	0.013 ± 0.02 µM	1.7 µM	> 200	reduced the level of membrane bound VEGF in HeLa cells in a dose-dependent fashion	not significant	3126.8 ± 1073.7 pg/mg total tumor proteins	1815.43 ± 321.9 pg/mg total tumor proteins
